The nature of data set [1]: Drug uptake in mouse brain at 3 mg/kg measured at upto 60 mins by PET imaging based analysis. It counts as ADME, organism-based. As to conditions: in vivo, 1 h; call rule not given here.
Data set [2] has as its target T1, Protein deacetylase HDAC6 (Homo sapiens, UniProt Q9UBN7).
T1 sequence (Q9UBN7 whole entry): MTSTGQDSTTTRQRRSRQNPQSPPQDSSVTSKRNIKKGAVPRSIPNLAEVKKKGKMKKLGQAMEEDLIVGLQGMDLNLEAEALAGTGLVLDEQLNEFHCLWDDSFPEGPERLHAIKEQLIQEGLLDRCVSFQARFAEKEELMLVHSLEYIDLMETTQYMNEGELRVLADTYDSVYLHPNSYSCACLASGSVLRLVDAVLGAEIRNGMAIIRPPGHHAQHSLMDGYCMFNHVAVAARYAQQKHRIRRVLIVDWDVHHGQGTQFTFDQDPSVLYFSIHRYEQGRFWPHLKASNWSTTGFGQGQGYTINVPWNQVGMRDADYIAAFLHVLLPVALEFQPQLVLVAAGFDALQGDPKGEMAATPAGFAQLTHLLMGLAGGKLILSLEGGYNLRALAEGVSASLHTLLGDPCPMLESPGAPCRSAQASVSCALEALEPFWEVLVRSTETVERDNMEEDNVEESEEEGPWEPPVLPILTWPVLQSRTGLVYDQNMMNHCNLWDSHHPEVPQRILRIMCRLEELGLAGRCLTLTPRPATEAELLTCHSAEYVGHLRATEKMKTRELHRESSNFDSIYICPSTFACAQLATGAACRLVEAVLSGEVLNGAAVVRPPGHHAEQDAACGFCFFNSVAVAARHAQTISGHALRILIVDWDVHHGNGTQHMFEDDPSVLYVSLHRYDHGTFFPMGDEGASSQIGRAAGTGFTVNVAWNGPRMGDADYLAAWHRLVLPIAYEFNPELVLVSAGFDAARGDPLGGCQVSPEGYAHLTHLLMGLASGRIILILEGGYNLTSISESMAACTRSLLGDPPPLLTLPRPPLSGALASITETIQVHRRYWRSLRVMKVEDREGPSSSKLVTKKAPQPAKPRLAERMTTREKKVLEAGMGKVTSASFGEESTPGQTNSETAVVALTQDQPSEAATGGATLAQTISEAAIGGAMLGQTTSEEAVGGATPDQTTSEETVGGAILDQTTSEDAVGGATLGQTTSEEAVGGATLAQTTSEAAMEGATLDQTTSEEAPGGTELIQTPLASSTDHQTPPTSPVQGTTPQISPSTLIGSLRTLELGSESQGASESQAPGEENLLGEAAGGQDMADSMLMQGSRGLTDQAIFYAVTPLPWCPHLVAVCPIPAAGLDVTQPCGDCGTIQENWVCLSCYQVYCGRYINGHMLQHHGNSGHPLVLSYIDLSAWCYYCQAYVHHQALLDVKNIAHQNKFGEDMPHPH
The data set can be described thus: Inhibition of HDAC6 (unknown origin).

Another data set concerns the target Histone deacetylase 1 (Homo sapiens, UniProt Q13547). As to the kind of experiment: Inhibition of HDAC1 (unknown origin).
Data set [3] can be described thus: Ratio of drug concentration in brain to plasma of C57BL/6 mouse plasma at 1 mg/kg, ip measured after 1 hr by LC-MS/MS analysis. Format: ADME, organism-based. Particulars: read-out: BPR.
The next data set has as its target T2, Histone deacetylase 11 (Homo sapiens, UniProt Q96DB2).
T2 sequence (Q96DB2 whole entry): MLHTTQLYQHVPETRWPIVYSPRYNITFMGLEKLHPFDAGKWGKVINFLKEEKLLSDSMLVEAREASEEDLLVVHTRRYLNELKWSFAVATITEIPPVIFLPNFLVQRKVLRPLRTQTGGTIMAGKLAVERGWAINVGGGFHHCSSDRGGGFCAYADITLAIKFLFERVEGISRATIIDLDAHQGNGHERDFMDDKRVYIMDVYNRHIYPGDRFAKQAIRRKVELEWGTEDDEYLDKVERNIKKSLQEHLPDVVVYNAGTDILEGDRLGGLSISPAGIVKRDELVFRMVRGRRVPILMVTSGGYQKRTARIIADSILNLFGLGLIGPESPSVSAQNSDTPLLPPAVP
As to the kind of experiment: Inhibition of HDAC11 (unknown origin).

Data set [4] in a line: Drug concentration in C57BL/6 mouse brain at 1 mg/kg, ip measured after 1 hr by LC-MS/MS analysis. As to conditions: read-out: Ct. It counts as ADME, organism-based.
A further data set concerns the target Histone deacetylase 4 (Homo sapiens, UniProt P56524). As to the kind of experiment: Inhibition of HDAC4 (unknown origin).
A short description of data set [5]: Ratio of drug concentration in brain to plasma of C57BL/6 mouse plasma at 1 mg/kg, ip measured after 0.5 hr by LC-MS/MS analysis. Format: ADME, organism-based. Particulars: read-out: BPR.
Another data set deals with Histone deacetylase 3 (Homo sapiens, UniProt O15379). As to the kind of experiment: Inhibition of HDAC3 (unknown origin).
Data set [6] in a line: Drug concentration in C57BL/6 mouse plasma at 1 mg/kg, ip measured after 3 hrs by LC-MS/MS analysis. Format: ADME, organism-based.
Data set [7] is described as follows: Ratio of drug concentration in brain to plasma of C57BL/6 mouse plasma at 1 mg/kg, ip measured after 3 hrs by LC-MS/MS analysis. It counts as ADME, organism-based. As to conditions: read-out: BPR.
Another data set concerns the target Histone deacetylase 9 (Homo sapiens, UniProt Q9UKV0). As to the kind of experiment: Inhibition of HDAC9 (unknown origin).
Data set [8] has as its target T3, Polyamine deacetylase HDAC10 (Homo sapiens, UniProt Q969S8).
T3 sequence (Q969S8 whole entry): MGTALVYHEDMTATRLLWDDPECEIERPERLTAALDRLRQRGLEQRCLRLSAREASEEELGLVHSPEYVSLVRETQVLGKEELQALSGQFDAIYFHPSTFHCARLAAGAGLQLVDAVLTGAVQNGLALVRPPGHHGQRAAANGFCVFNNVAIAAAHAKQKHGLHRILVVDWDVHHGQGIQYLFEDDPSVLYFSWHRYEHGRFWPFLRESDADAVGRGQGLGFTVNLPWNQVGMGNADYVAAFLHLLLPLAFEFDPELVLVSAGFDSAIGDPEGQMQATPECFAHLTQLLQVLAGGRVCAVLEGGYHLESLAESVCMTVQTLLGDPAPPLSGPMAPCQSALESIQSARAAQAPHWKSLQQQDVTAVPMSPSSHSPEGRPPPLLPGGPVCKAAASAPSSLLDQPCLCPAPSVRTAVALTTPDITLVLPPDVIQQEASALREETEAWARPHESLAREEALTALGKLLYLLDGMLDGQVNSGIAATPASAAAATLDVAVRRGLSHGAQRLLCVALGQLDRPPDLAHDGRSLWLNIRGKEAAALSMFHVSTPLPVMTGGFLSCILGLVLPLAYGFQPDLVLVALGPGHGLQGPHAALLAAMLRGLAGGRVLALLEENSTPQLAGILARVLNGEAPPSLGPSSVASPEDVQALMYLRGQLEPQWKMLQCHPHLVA
As to the kind of experiment: Inhibition of HDAC10 (unknown origin).

The subject of a further data set is BV-2. As to the kind of experiment: Cytotoxicity against mouse BV-2 cells at 500 to 1000 nM incubated overnight in presence of LPS by LDH assay. It counts as toxicity, cell-based. Particulars: bv-2, 1 µM, dose 500-1000 nM.
The next data set addresses Histone deacetylase 2 (Homo sapiens, UniProt Q92769). The data set can be described thus: Inhibition of HDAC2 (unknown origin).
In another data set the target is T4, Histone deacetylase 8 (Homo sapiens, UniProt Q9BY41).
T4 sequence (Q9BY41 whole entry): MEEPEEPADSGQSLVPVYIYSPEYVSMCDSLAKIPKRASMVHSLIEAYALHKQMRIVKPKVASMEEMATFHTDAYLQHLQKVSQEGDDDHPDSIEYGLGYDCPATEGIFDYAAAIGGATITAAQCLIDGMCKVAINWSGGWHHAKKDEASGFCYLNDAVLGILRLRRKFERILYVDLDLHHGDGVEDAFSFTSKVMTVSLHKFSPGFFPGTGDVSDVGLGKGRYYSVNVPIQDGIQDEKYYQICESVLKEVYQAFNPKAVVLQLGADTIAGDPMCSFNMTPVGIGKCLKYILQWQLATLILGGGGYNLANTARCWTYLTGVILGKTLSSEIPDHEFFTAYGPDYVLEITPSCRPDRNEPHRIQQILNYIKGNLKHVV
As to the kind of experiment: Inhibition of HDAC8 (unknown origin).

Data set [9] can be described thus: Drug concentration in C57BL/6 mouse brain at 1 mg/kg, ip measured after 3 hrs by LC-MS/MS analysis. It counts as ADME, organism-based. As to conditions: read-out: Ct.
Data set [10] can be described thus: Drug concentration in C57BL/6 mouse plasma at 1 mg/kg, ip measured after 0.5 hrs by LC-MS/MS analysis. Format: ADME, organism-based.
The nature of data set [11]: Drug concentration in C57BL/6 mouse plasma at 1 mg/kg, ip measured after 1 hr by LC-MS/MS analysis. Format: ADME, organism-based.
The nature of data set [12]: Drug concentration in C57BL/6 mouse brain at 1 mg/kg, ip measured after 0.5 hrs by LC-MS/MS analysis. It counts as ADME, organism-based. Particulars: read-out: Ct.
The next data set deals with Histone deacetylase 5 (Homo sapiens, UniProt Q9UQL6). As to the kind of experiment: Inhibition of HDAC5 (unknown origin).
A short description of data set [13]: Drug accumulation in mouse kidney measured after 60 mins post injection. Format: ADME, tissue-based. Particulars: in vivo, 1 h.
The nature of data set [14]: Drug accumulation in mouse liver measured after 60 mins post injection. Format: ADME, tissue-based. Particulars: in vivo, 1 h.
Data set [15] can be described thus: Drug accumulation in mouse liver measured after 5 mins post injection. It counts as ADME, tissue-based. Particulars: in vivo.
Data set [16] in a line: Drug accumulation in mouse lung measured after 5 mins post injection. Particulars: in vivo. Format: ADME, tissue-based.
Data set [17] in a line: Drug accumulation in mouse heart measured after 5 mins post injection. Particulars: in vivo. It counts as ADME, tissue-based.
Data set [18] can be described thus: Drug accumulation in mouse spleen measured after 5 mins post injection. Format: ADME, tissue-based. As to conditions: in vivo.
The nature of data set [19]: Drug accumulation in mouse kidney measured after 5 mins post injection. Format: ADME, tissue-based. As to conditions: in vivo.

Structures are written as SMILES. Bounds are passed on as bounds.

Chain of Histone deacetylase 1 (Q13547 whole entry): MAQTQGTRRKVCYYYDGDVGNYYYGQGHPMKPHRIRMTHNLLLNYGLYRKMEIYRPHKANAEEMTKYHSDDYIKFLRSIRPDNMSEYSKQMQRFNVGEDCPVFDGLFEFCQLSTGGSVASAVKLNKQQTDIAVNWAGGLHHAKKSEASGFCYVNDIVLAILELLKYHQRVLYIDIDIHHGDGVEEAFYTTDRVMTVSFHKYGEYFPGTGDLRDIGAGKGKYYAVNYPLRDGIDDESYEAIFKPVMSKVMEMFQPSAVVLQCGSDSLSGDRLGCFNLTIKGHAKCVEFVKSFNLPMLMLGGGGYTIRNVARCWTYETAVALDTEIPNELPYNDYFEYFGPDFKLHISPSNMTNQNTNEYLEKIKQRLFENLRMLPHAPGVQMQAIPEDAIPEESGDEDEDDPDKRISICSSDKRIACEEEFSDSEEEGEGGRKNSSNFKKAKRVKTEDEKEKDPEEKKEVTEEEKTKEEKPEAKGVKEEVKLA
Chain of Histone deacetylase 3 (O15379 whole entry): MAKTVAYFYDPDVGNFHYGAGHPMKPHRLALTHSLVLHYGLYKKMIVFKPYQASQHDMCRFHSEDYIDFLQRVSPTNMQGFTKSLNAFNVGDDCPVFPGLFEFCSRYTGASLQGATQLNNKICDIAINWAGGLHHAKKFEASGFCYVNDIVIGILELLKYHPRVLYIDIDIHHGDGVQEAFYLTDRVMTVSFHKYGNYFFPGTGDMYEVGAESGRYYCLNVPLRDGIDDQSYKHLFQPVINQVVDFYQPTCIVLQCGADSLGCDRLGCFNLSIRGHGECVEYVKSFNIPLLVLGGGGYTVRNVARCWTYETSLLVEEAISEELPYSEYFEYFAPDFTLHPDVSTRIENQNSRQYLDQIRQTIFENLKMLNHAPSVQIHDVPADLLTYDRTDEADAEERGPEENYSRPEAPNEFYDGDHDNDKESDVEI
Chain of Histone deacetylase 5 (Q9UQL6 whole entry): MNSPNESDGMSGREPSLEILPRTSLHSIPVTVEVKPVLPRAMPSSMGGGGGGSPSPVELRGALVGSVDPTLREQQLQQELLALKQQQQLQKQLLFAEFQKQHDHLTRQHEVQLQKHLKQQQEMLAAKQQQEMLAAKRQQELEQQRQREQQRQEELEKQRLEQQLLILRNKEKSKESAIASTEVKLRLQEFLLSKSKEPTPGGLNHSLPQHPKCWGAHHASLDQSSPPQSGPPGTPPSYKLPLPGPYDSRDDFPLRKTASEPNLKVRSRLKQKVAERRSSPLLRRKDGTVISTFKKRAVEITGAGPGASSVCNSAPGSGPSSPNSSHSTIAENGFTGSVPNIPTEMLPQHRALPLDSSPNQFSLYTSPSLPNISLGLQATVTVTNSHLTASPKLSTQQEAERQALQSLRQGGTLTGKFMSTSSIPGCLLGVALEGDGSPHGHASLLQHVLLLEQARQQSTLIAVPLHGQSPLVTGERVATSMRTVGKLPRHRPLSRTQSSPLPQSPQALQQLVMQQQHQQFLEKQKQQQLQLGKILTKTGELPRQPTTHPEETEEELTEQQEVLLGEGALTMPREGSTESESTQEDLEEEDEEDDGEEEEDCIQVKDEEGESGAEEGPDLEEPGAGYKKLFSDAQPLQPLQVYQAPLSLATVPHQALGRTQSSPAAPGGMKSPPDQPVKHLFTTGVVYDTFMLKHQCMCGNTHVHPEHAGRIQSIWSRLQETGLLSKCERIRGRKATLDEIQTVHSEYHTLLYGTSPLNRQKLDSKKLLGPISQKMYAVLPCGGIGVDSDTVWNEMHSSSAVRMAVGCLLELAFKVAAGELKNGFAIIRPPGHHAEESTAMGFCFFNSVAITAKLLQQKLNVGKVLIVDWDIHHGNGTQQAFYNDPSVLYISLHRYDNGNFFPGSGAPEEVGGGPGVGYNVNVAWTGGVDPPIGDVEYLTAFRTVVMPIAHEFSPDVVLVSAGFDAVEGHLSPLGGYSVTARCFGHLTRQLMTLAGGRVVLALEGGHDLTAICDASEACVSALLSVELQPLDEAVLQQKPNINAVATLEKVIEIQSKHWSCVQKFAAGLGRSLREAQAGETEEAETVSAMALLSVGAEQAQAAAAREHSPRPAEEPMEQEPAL
Chain of Histone deacetylase 9 (Q9UKV0 whole entry): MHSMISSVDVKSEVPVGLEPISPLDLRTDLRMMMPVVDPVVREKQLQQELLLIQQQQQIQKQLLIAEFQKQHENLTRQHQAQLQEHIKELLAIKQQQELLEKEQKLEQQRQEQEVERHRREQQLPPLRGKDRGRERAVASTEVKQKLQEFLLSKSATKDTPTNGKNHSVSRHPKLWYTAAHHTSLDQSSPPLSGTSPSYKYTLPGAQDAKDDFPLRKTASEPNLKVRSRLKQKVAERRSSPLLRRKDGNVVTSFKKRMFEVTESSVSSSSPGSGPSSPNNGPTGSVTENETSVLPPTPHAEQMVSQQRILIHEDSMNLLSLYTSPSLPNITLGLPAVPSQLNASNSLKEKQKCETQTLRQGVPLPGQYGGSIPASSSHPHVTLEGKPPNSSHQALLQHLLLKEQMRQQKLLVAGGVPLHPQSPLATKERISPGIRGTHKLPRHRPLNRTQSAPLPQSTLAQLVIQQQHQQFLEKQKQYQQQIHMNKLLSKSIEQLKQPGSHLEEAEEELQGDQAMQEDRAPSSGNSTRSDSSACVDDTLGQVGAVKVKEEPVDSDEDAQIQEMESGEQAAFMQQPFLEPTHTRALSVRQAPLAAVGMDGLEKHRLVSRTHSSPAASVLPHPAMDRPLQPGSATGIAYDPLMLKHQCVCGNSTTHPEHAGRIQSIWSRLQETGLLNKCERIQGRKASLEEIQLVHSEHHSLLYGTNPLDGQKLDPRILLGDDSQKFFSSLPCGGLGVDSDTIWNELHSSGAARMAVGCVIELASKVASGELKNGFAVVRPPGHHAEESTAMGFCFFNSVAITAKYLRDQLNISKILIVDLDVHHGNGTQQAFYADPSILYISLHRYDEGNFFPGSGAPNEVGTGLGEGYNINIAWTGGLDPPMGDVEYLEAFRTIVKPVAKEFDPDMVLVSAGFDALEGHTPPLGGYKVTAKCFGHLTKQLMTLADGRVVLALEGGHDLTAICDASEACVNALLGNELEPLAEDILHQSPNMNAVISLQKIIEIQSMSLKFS
Chain of Histone deacetylase 4 (P56524 whole entry): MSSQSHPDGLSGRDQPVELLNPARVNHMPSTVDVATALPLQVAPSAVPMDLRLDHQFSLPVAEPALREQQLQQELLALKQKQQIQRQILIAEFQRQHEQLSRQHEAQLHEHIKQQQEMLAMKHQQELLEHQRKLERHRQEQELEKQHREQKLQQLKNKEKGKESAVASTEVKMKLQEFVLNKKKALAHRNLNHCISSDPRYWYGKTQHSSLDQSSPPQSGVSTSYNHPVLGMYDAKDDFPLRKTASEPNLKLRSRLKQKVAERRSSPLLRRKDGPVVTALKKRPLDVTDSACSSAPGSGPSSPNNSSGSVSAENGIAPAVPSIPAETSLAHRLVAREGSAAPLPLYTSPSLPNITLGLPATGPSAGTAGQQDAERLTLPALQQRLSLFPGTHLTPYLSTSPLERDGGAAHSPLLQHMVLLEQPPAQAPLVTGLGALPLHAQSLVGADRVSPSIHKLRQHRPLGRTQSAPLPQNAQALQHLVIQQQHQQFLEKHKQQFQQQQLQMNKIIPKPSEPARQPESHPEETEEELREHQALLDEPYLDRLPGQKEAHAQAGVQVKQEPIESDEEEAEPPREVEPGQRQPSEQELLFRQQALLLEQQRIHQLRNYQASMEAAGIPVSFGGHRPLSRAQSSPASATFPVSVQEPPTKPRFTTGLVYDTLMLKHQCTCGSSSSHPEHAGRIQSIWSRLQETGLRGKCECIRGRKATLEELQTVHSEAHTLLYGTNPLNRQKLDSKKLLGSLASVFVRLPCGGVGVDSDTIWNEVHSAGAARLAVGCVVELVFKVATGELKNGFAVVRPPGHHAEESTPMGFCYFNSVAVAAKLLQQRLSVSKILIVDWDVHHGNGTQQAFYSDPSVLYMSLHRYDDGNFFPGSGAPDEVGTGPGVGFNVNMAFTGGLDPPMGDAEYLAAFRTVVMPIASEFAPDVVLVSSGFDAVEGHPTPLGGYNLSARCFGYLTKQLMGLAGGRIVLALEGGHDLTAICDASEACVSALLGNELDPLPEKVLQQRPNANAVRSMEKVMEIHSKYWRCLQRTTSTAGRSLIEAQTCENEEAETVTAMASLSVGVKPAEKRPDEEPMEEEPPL
Chain of Histone deacetylase 2 (Q92769 whole entry): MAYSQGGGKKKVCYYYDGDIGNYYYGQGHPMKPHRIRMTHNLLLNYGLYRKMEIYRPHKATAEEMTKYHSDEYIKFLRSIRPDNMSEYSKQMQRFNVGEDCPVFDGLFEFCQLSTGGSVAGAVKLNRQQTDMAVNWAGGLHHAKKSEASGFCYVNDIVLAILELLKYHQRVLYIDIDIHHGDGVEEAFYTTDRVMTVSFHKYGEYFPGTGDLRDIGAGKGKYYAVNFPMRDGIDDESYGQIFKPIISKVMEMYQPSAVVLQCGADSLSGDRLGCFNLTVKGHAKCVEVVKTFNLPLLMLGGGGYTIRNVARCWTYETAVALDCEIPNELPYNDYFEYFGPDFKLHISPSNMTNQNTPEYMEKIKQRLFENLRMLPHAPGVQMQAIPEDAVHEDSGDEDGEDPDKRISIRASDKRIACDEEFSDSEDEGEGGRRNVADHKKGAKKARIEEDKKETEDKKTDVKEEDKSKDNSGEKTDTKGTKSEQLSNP

`O=C(NO)c1ccc(CNc2cccc3ccc([18F])nc23)cc1` yielded an SUV in data set [1] of 0.35.
`O=C(NO)c1ccc(CNC2CCCc3cccnc32)cc1` (stereo unspecified): the values for the IC50 (in [2]; on Histone deacetylase 1) were 86.1 nM and 4710 nM, respectively.
As for `O=C(NO)c1ccc(CN2CCCc3cccnc32)c(F)c1`, the Kp at 1 h in data set [3] amounted to 1.5. For the same molecule, the IC50 (commonly the concentration at which inhibition is half-maximal) on Histone deacetylase 11 was 8610 nM; on Histone deacetylase 4 it was 578 nM; on Histone deacetylase 3, 568 nM; at Histone deacetylase 9, 701 nM; in [8] it was 269 nM; against Histone deacetylase 2 it was over 10000 nM. For the same molecule, the results for the IC50 against Histone deacetylase 8 and on Histone deacetylase 5 were 597 nM and 1850 nM, respectively. Further, the concentration at 1 h in [4] was found to be 6.48 ng/mL; in data set [11] it was 4.32 ng/mL. In addition, the Kp at 0.5 h in data set [5] amounted to 2.1. Also, the concentration at 3 h in data set [6] was 0.82 ng/mL; in [9] it was 1.07 ng/mL. In addition, the Kp at 3 h in data set [7] stood at 1.3. Also, the Activity entry in the data set with BV-2 is recorded as “Non-Toxic”. For the same molecule, the values for the concentration at 0.5 h in data set [10] and in [12] were 6.21 ng/mL and 13.2 ng/mL, respectively.
Consider `O=C(NO)c1ccc(CNC2CCCc3cccnc32)c(F)c1` (stereo unspecified), for which the IC50 in data set [2] stood at 63 nM; on Histone deacetylase 1 it was 5050 nM.
`O=C(NO)c1ccc(CN2CCCc3cccnc32)c([18F])c1`: the Drug uptake entry is “Active” in [13]; “Active” in [14]; over 10 %ID/cc in [15]; “Active” in [16]; over 10 %ID/cc in data set [17]; “Active” in data set [18]. The molecule also displayed a Drug uptake in data set [19] of over 10 %ID/cc. Besides, the SUV in [1] was found to be 0.6.

For the origin of these results see ChEMBL document CHEMBL5325440, “Design, synthesis, and anti-inflammatory activity characterization of novel brain-permeable HDAC6 inhibitors” (Eur J Med Chem, 2023).
